What is called melting point is the temperature of the solid-liquid transition.

In turn, `O=C1CCCCC1Sc1ncccn1` (stereo not shown) [Compound 03-43, 2-(Pyrimidin-2-ylsulfanyl)-cyclohexanone] came in with a melting point of 51 °C.

Source of the values: US20080221109A1, “PESTICIDAL SUBSTITUTED THIOETHERS” (priority 2005, published 2008).
